Results from article PMC4268243 (Nuclear medicine and biology, 2014).

Legend:
[1] = test system: MDA MB468 estrogen-independent breast carcinoma cells; experiment: Amino acid uptake and inhibition in MDA MB468 cells; assay type: cell-based, human; settings: for Cell uptake: MDA MB468, 30 minutes incubation
A549 tumor xenograft = experiment: Biodistribution in A549 tumor-bearing SCID mice; assay type: in vivo; settings: listed as (S)-[^18F]FAMP 1
DU145 tumor xenograft = experiment: Biodistribution in DU145 tumor-bearing SCID mice; assay type: in vivo; settings: listed as (S)-[^18F]FAMP 1

For `CC(N)(C[18F])C(=O)O` [(S)-[^18F]1] [2-amino-3-[^18F]fluoro-2-methylpropanoic acid], the Cell uptake ([1]; 10 mM BCH) was 2.2±0.1 % ID/5×10^5 cells, the Cell uptake ([1]; 10 mM MeAIB) was 3.5±0.2 % ID/5×10^5 cells and the Cell uptake ([1]; Control (no inhibitor)) was 3.4±0.3 % ID/5×10^5 cells. The “inhibition of uptake by MeAIB” value ([1]; MDA MB468 cells, 10 mM MeAIB) was “no significant MeAIB inhibition”, the uptake in blood (A549 tumor xenograft; 15 min post injection) was 3.9±0.6 %ID/g and the uptake in bone (A549 tumor xenograft; 15 min post injection) was 2.6±0.8 %ID/g. It also gave an uptake in brain (A549 tumor xenograft; 15 min post injection) of 0.5±0.1 %ID/g, an uptake in heart (A549 tumor xenograft; 15 min post injection) of 3.2±0.7 %ID/g and an uptake in kidney (A549 tumor xenograft; 15 min post injection) of 29±5.7 %ID/g. It also gave an uptake in liver (A549 tumor xenograft; 15 min post injection) of 3.7±0.5 %ID/g, an uptake in lung (A549 tumor xenograft; 15 min post injection) of 5.5±2.0 %ID/g and an uptake in muscle (A549 tumor xenograft; 15 min post injection) of 3.3±0.7 %ID/g. For the same compound, the uptake in pancreas (A549 tumor xenograft; 15 min post injection) was 42±8.4 %ID/g, the uptake in spleen (A549 tumor xenograft; 15 min post injection) was 9.0±3.0 %ID/g and the uptake in tumor (A549 tumor xenograft; 15 min post injection) was 6.7±1.7 %ID/g. For the same compound, the uptake in blood (A549 tumor xenograft; 30 min post injection) was 3.1±0.6 %ID/g, the uptake in bone (A549 tumor xenograft; 30 min post injection) was 2.5±0.6 %ID/g and the uptake in brain (A549 tumor xenograft; 30 min post injection) was 0.6±0.1 %ID/g. It also gave an uptake in heart (A549 tumor xenograft; 30 min post injection) of 3.3±0.4 %ID/g, an uptake in kidney (A549 tumor xenograft; 30 min post injection) of 21±6.9 %ID/g and an uptake in liver (A549 tumor xenograft; 30 min post injection) of 3.8±0.6 %ID/g. The uptake in lung (A549 tumor xenograft; 30 min post injection) was 4.3±1.7 %ID/g, the uptake in muscle (A549 tumor xenograft; 30 min post injection) was 3.0±0.8 %ID/g and the uptake in pancreas (A549 tumor xenograft; 30 min post injection) was 39±8.2 %ID/g. For the same compound, the uptake in spleen (A549 tumor xenograft; 30 min post injection) was 8.4±1.7 %ID/g, the uptake in tumor (A549 tumor xenograft; 30 min post injection) was 7.9±1.0 %ID/g and the uptake in blood (A549 tumor xenograft; 60 min post injection) was 2.3±0.1 %ID/g. The uptake in bone (A549 tumor xenograft; 60 min post injection) was 2.7±0.6 %ID/g, the uptake in brain (A549 tumor xenograft; 60 min post injection) was 0.8±0.1 %ID/g and the uptake in heart (A549 tumor xenograft; 60 min post injection) was 3.0±0.4 %ID/g. For the same compound, the uptake in kidney (A549 tumor xenograft; 60 min post injection) was 17±1.4 %ID/g, the uptake in liver (A549 tumor xenograft; 60 min post injection) was 3.5±0.4 %ID/g and the uptake in lung (A549 tumor xenograft; 60 min post injection) was 2.8±1.3 %ID/g. The uptake in muscle (A549 tumor xenograft; 60 min post injection) was 2.9±0.6 %ID/g, the uptake in pancreas (A549 tumor xenograft; 60 min post injection) was 33±6.1 %ID/g and the uptake in spleen (A549 tumor xenograft; 60 min post injection) was 6.5±1.1 %ID/g. For the same compound, the uptake in tumor (A549 tumor xenograft; 60 min post injection) was 8.3±1.0 %ID/g, the uptake in blood (A549 tumor xenograft; 120 min post injection) was 2.0±0.4 %ID/g and the uptake in bone (A549 tumor xenograft; 120 min post injection) was 2.0±0.5 %ID/g. The uptake in brain (A549 tumor xenograft; 120 min post injection) was 0.8±0.1 %ID/g, the uptake in heart (A549 tumor xenograft; 120 min post injection) was 2.7±0.8 %ID/g and the uptake in kidney (A549 tumor xenograft; 120 min post injection) was 14±1.8 %ID/g. The uptake in liver (A549 tumor xenograft; 120 min post injection) was 2.8±0.4 %ID/g, the uptake in lung (A549 tumor xenograft; 120 min post injection) was 3.1±0.9 %ID/g and the uptake in muscle (A549 tumor xenograft; 120 min post injection) was 2.3±0.4 %ID/g. For the same compound, the uptake in pancreas (A549 tumor xenograft; 120 min post injection) was 29±2.3 %ID/g, the uptake in spleen (A549 tumor xenograft; 120 min post injection) was 6.0±1.7 %ID/g and the uptake in tumor (A549 tumor xenograft; 120 min post injection) was 6.5±0.8 %ID/g. The uptake in blood (DU145 tumor xenograft; 15 min post injection) was 5.1±1.1 %ID/g, the uptake in bone (DU145 tumor xenograft; 15 min post injection) was 2.4±1.1 %ID/g and the uptake in brain (DU145 tumor xenograft; 15 min post injection) was 0.6±0.1 %ID/g. For the same compound, the uptake in heart (DU145 tumor xenograft; 15 min post injection) was 3.2±1.2 %ID/g, the uptake in kidney (DU145 tumor xenograft; 15 min post injection) was 36±5.1 %ID/g and the uptake in liver (DU145 tumor xenograft; 15 min post injection) was 3.4±0.6 %ID/g. For the same compound, the uptake in lung (DU145 tumor xenograft; 15 min post injection) was 6.5±1.5 %ID/g, the uptake in muscle (DU145 tumor xenograft; 15 min post injection) was 4.0±0.8 %ID/g and the uptake in pancreas (DU145 tumor xenograft; 15 min post injection) was 55±8.8 %ID/g. For the same compound, the uptake in spleen (DU145 tumor xenograft; 15 min post injection) was 7.9±2.3 %ID/g, the uptake in tumor (DU145 tumor xenograft; 15 min post injection) was 3.2±2.5 %ID/g and the uptake in blood (DU145 tumor xenograft; 30 min post injection) was 2.9±1.1 %ID/g. The uptake in bone (DU145 tumor xenograft; 30 min post injection) was 2.2±0.5 %ID/g, the uptake in brain (DU145 tumor xenograft; 30 min post injection) was 0.5±0.2 %ID/g and the uptake in heart (DU145 tumor xenograft; 30 min post injection) was 3.2±1.3 %ID/g. It also gave an uptake in kidney (DU145 tumor xenograft; 30 min post injection) of 21±6.2 %ID/g, an uptake in liver (DU145 tumor xenograft; 30 min post injection) of 2.9±0.9 %ID/g and an uptake in lung (DU145 tumor xenograft; 30 min post injection) of 5.0±2.6 %ID/g. For the same compound, the uptake in muscle (DU145 tumor xenograft; 30 min post injection) was 2.9±0.2 %ID/g, the uptake in pancreas (DU145 tumor xenograft; 30 min post injection) was 37±13 %ID/g and the uptake in spleen (DU145 tumor xenograft; 30 min post injection) was 6.6±1.1 %ID/g. The uptake in tumor (DU145 tumor xenograft; 30 min post injection) was 1.8±0.4 %ID/g, the uptake in blood (DU145 tumor xenograft; 60 min post injection) was 2.4±0.04 %ID/g and the uptake in bone (DU145 tumor xenograft; 60 min post injection) was 2.1±0.2 %ID/g. It also gave an uptake in brain (DU145 tumor xenograft; 60 min post injection) of 0.6±0.1 %ID/g, an uptake in heart (DU145 tumor xenograft; 60 min post injection) of 3.5±0.3 %ID/g and an uptake in kidney (DU145 tumor xenograft; 60 min post injection) of 17±0.6 %ID/g. For the same compound, the uptake in liver (DU145 tumor xenograft; 60 min post injection) was 3.3±0.5 %ID/g, the uptake in lung (DU145 tumor xenograft; 60 min post injection) was 3.4±0.8 %ID/g and the uptake in muscle (DU145 tumor xenograft; 60 min post injection) was 2.5±0.3 %ID/g. For the same compound, the uptake in pancreas (DU145 tumor xenograft; 60 min post injection) was 36±3.1 %ID/g, the uptake in spleen (DU145 tumor xenograft; 60 min post injection) was 9.2±5.1 %ID/g and the uptake in tumor (DU145 tumor xenograft; 60 min post injection) was 3.4±1.7 %ID/g. It also gave an uptake in blood (DU145 tumor xenograft; 120 min post injection) of 1.8±0.4 %ID/g, an uptake in bone (DU145 tumor xenograft; 120 min post injection) of 1.6±0.4 %ID/g and an uptake in brain (DU145 tumor xenograft; 120 min post injection) of 0.6±0.1 %ID/g. The uptake in heart (DU145 tumor xenograft; 120 min post injection) was 3.0±0.7 %ID/g, the uptake in kidney (DU145 tumor xenograft; 120 min post injection) was 13±1.7 %ID/g and the uptake in liver (DU145 tumor xenograft; 120 min post injection) was 2.8±0.7 %ID/g. It also gave an uptake in lung (DU145 tumor xenograft; 120 min post injection) of 3.3±1.1 %ID/g, an uptake in muscle (DU145 tumor xenograft; 120 min post injection) of 1.7±0.5 %ID/g and an uptake in pancreas (DU145 tumor xenograft; 120 min post injection) of 28±7.4 %ID/g. It also gave an uptake in spleen (DU145 tumor xenograft; 120 min post injection) of 5.3±1.8 %ID/g and an uptake in tumor (DU145 tumor xenograft; 120 min post injection) of 3.5±0.7 %ID/g.
